Data as given in patent publication US10626106B2, “Substituted pyrrolidine amides I” (Gruenenthal GmbH, priority 2017, dated 2020).

Each compound was assayed against T1, Human Glucocorticoid Receptor (hGR) (Homo sapiens, UniProt P04150) (assay: Human Glucocorticoid Receptor (hGR) Ligand-Binding Assay (competitive 3H-dexamethasone binding, IM9 cytosol)). Conditions: compound at 1 μM; competition with 3H-dexamethasone; cytosol of IM9 cells; read-out: % inhibition hGR at 1 μM.
T1 construct: the resultant supernatant (=cytosol of IM9 cells) was centrifuged at 103,000 g for 60 minutes; host or cells: IM9 human lymphoblast cell line (cytosol fraction)
T1 sequence (P04150 1-777): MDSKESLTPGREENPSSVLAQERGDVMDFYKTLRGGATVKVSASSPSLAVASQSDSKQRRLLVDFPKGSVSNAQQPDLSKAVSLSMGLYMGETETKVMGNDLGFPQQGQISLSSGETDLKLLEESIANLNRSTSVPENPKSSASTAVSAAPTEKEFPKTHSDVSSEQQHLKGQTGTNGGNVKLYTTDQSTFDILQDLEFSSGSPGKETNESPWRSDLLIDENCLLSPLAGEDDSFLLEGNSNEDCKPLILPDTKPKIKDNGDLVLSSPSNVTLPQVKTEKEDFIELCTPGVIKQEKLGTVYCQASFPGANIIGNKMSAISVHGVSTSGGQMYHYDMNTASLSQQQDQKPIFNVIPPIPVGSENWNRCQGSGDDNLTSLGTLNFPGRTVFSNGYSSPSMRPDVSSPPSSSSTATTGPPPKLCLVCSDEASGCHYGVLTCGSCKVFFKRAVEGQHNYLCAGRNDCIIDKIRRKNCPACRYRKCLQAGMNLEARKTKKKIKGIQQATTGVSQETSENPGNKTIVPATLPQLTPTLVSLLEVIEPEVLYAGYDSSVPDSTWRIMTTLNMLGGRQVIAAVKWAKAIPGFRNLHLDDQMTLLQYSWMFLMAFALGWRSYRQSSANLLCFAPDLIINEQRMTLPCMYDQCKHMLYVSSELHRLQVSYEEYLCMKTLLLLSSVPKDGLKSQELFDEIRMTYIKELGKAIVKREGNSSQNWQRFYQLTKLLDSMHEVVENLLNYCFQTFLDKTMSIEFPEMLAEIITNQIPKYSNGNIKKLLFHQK
Source text: Human Glucocorticoid Receptor (hGR) Ligand-Binding Assay
Potential selective glucocorticoid receptor modulators of this intervention can be tested for their binding affinity at the glucocorticoid receptor using the binding assay described below.
Preferably, the glucocortitcoid receptor extracted from cytosol of IM9 cells is used for competitive radioligand binding assays to calculate the IC50 values and binding affinity (Ki value) of the compounds according to the present invention. Preferably, a fixed concentration of the radioligand 3H-dexamethasone and a range of concentrations of compounds according to the present invention (as unlabeled competitors of dexamethasone) are mixed with the extracted glucocorticoid receptor in order to measure the potency/affinity with which they compete for the binding of the radioligand. Preferably, by using competition curves the IC50 which is the concentration of competing ligand that displaces 50% of the specific binding of the radioligand is determined. Finally this IC50 value is converted to a Ki value.
The human lymphoblast cell line IM9 (ATCC, Bethesda, Md.) were cultivated in RPMI 1640 media containing 10% fetal bovine serum, penicillin (100 U/ml), streptomycin (100 μg/ml), and 2 mM L-glutamine at […] and 7% CO2 in a humidified incubator. Cells were centrifuged for 10 minutes at 1500 g and were washed in PBS and repelleted. Cell were then resuspended in homogenization buffer consisting of: 10 mM TES, 10 mM sodium molybdate, 1 mM EDTA, pH 7.4, 20 mM 2-mercaptoethanol, and 10% glycerol. Disruption of the cells was performed by nitrogen cavitation using 2×15 minutes at 600 to 750 psi nitrogen in a N2 cavitator at 0° C. The cell preparation was then centrifuged at 27,000 g for 15 minutes, and the resultant supernatant (=cytosol of IM9 cells) was centrifuged at 103,000 g for 60 minutes at 4° C. The amount of protein in the supernatant fraction was determined using a BCA assay kit and aliquots were snap frozen in a dry ice-acetone bath and stored at −70° C. Competitive binding assays were done in duplicate in homogenization buffer with a total volume of 200 μl. To this end, 1 mg of IM9 cytosol, 0.05 μCi (1.5 nM) of 3H-dexamethasone […] and compounds according to the present invention (=unlabeled competitors of dexamethasone; range of concentrations) were mixed. The reaction was stopped after incubation at 0° C. for 16 to 18 hours by the addition of 100 μl of a charcoal-dextran mixture (2% activated charcoal, 0.5% dextran in 10 mM Tris, 1 mM EDTA, pH 7.4). Another incubation step at 0° C. for 10 minutes followed before the samples were centrifuged for 5 minutes at 8200 g. 100 μl of the supernatant) was finally assayed for radioactivity by liquid scintillationspectrometry, and the IC50 values were determined graphically and were converted to Ki values.

inhibition at 1 µM	SMILES
> 85%	Cn1cc(-n2ncc3cc(N4C(=O)C[C@H](NC(=O)C(C)(F)F)[C@H]4c4cccc(F)c4)ccc32)ccc1=O [Example 5, 2,2-difluoro-N-((2R,3S)-2-(3-fluorophenyl)-1-(1-(1-methyl-6-oxo-1,6-dihydropyridin-3-yl)-1H-indazol-5-yl)-5-oxopyrrolidin-3-yl)propanamide]
> 85%	Cn1cc(-n2ncc3cc(N4C(=O)C[C@H](NC(=O)C(C)(F)F)[C@H]4c4ccccc4F)ccc32)ccc1=O [Example 6, 2,2-difluoro-N-((2R,3S)-2-(2-fluorophenyl)-1-(1-(1-methyl-6-oxo-1,6-dihydropyridin-3-yl)-1H-indazol-5-yl)-5-oxopyrrolidin-3-yl)propanamide]
60 to 85%	COc1cc([C@@H]2[C@@H](NC(=O)C(C)(F)F)CC(=O)N2c2ccc3c(cnn3-c3ccc(=O)n(C)c3)c2)ccc1F [Example 15, 2,2-difluoro-N-((2R,3S)-2-(4-fluoro-3-methoxyphenyl)-1-(1-(1-methyl-6-oxo-1,6-dihydropyridin-3-yl)-1H-indazol-5-yl)-5-oxopyrrolidin-3-yl)propanamide]
> 85%	Cn1cc(-n2ncc3cc(N4C(=O)C[C@H](NC(=O)C5(F)CC5)[C@H]4c4ccccc4)ccc32)ccc1=O [Example 18, 1-fluoro-N-((2R,3S)-1-(1-(1-methyl-6-oxo-1,6-dihydropyridin-3-yl)-1H-indazol-5-yl)-5-oxo-2-phenylpyrrolidin-3-yl)cyclopropanecarboxamide]
60 to 85%	Cn1cc(-n2ncc3cc(N4C(=O)C[C@H](NC(=O)C5(C)CC5)[C@H]4c4ccccc4)ccc32)ccc1=O [Example 26, 1-methyl-N-((2R,3S)-1-(1-(1-methyl-6-oxo-1,6-dihydropyridin-3-yl)-1H-indazol-5-yl)-5-oxo-2-phenylpyrrolidin-3-yl)cyclopropane-1-carboxamide]
60 to 85%	Cn1cc(-n2ncc3cc(N4C(=O)C[C@H](NC(=O)C5CC5)[C@H]4c4ccccc4F)ccc32)ccc1=O [Example 39, N-((2R,3S)-2-(2-fluorophenyl)-1-(1-(1-methyl-6-oxo-1,6-dihydropyridin-3-yl)-1H-indazol-5-yl)-5-oxopyrrolidin-3-yl)cyclopropanecarboxamide]
40 to 60%	Cc1ccccc1[C@@H]1[C@@H](NC(=O)C2CC2)CC(=O)N1c1ccc2c(cnn2-c2ccc(=O)n(C)c2)c1 [Example 41, N-((2R,3S)-1-(1-(1-methyl-6-oxo-1,6-dihydropyridin-3-yl)-1H-indazol-5-yl)-5-oxo-2-(o-tolyl)pyrrolidin-3-yl)cyclopropanecarboxamide]
60 to 85%	COc1cc([C@@H]2[C@@H](NC(=O)C(C)(F)F)CC(=O)N2c2ccc3c(cnn3-c3ccc(=O)n(C)c3)c2)ccn1 [Example 42, 2,2-difluoro-N-((2R,3S)-2-(2-methoxypyridin-4-yl)-1-(1-(1-methyl-6-oxo-1,6-dihydropyridin-3-yl)-1H-indazol-5-yl)-5-oxopyrrolidin-3-yl)propanamide]
> 85%	Cc1ccccc1[C@@H]1[C@@H](NC(=O)C(C)(F)F)CC(=O)N1c1ccc2c(cnn2-c2ccc(=O)n(C)c2)c1 [Example 43, 2,2-difluoro-N-((2R,3S)-1-(1-(1-methyl-6-oxo-1,6-dihydropyridin-3-yl)-1H-indazol-5-yl)-5-oxo-2-(o-tolyl)pyrrolidin-3-yl)propanamide]

Same assay, conditions: read-out: % inhibition hGR at 1 μM

SMILES	inhibition at 1 µM
Cn1cc(-n2ncc3cc(N4C(=O)C[C@H](NC(=O)C(C)(F)F)[C@H]4c4ccccc4)ccc32)ccc1=O [Example 4, 2,2-difluoro-N-((2R,3S)-1-(1-(1-methyl-6-oxo-1,6-dihydropyridin-3-yl)-1H-indazol-5-yl)-5-oxo-2-phenylpyrrolidin-3-yl)propanamide]	> 85%
Cn1cc(-n2ncc3cc(N4C(=O)C[C@H](NC(=O)C(C)(F)F)[C@H]4c4ccc(F)cc4)ccc32)ccc1=O [Example 17, 2,2-difluoro-N-((2R,3S)-2-(4-fluorophenyl)-1-(1-(1-methyl-6-oxo-1,6-dihydropyridin-3-yl)-1H-indazol-5-yl)-5-oxopyrrolidin-3-yl)propanamide]	> 85%
